According to US9040518B2, “Chemical compounds” (GlaxoSmithKline LLC, priority 2010, dated 2015):
Structures can show the parent of a compound that is named as a salt.

target: ileal bile acid cotransporter (iBAT) (Homo sapiens (Human), UniProt Q12908); experiment: Human iBAT inhibition: [3H]-taurocholate uptake into HEK293 cells expressing human iBAT; assay type: cell-based; settings: HEK293 cells transduced with human iBAT Bacmam virus, 90 minutes at ambient temperature, mean of at least 2 datapoints
Protocol: Method for Determination of Human iBAT Inhibition:
In preparation for measurement of bile acid uptake into cells expressing the ileal bile acid cotransporter (iBAT), HEK293 cells were cultured in DMEM/F12 supplemented with 10% FBS. Twenty four hours prior to running an experiment, cells were harvested when at a confluence of 80-90%. Cells were seeded in poly-d-lysine coated plates at 50,000 cells per well, and human iBAT Bacmam virus was added such that each well contains 3.67×10e6 pfu (73.4pfu/cell). Each assay plate was covered with Breathe Easy Seal and placed in an incubator for 24 hours to allow expression of the transporter.
On the day of the uptake experiment, 10 mM HEPES was added to Hank's Balanced Salt Solution, and the pH was adjusted to 7.4 with TRIS (HBSSH). The assay buffer was prepared by adding […] [^3H]-taurocholate and 10 μM cold taurocholate to room temperature HBSSH. A separate washing buffer was prepared by adding 10 μM cold taurocholate to HBSSH (˜30 ml per assay plate) and placed on ice. Using 100% DMSO, 8 point, 3-fold dilution curves for each test compound was prepared starting at 200 μM. Similarly, an 8 point dose response curve was prepared of the control compound [(3R,5R)-3-butyl-3-ethyl-7,8-bis(methyloxy)-5-phenyl-2,3,4,5-tetrahydro-1,4-benzothiazepine 1,1-dioxide (Brieaddy, L. E. WO9605188, 1996)] starting at 1.8 mM. Drug plates were created by adding 3 μL of each concentration to a v-bottom 96-well plate then diluted 60-fold with 177 μL of assay buffer. Plates were removed from the incubator and allowed to cool to ambient temperature. Media was aspirated, and wells were washed once with 300 μL HBSSH. 50 μL of each dose response curve concentration was added in triplicate by column to the assay plates, reserving column 10 for control (assay buffer+1.67% DMSO) and columns 11 and 12 for the control compound. Plates were incubated at ambient temperature for 90 minutes then the plates were aspirated then washed 1× with 300 μL of wash buffer. 220 μL of Microscint 20 was added to each well, and the plates were sealed. The amount of [^3H]-taurocholate in cell lysate was quantitated using a microplate scintillation counter on the following day.
IC50's can be generated using the formula, y=(Vmax*x^n)/(K^n+x^n).

ileal bile acid cotransporter (iBAT), sequence (Q12908 whole entry): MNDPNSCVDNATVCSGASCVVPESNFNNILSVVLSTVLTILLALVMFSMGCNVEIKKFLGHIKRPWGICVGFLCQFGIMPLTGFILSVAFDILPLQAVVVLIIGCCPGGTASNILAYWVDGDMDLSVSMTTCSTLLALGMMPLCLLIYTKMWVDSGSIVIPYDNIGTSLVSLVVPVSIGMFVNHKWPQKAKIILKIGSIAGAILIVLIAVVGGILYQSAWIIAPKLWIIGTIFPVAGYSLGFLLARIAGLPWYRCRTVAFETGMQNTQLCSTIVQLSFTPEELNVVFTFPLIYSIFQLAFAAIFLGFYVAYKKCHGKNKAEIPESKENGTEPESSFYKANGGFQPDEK

Q: For `CCCC[C@]1(CC)CS(=O)(=O)c2cc(CN(CC(=O)O)CC(=O)O)c(OC)cc2[C@@H](c2ccccc2)N1` [Example 7, 2,2′-({[(3R,5R)-3-butyl-3-ethyl-7-(methyloxy)-1,1-dioxido-5-phenyl-2,3,4,5-tetrahydro-1,4-benzothiazepin-8-yl]methyl}imino)diacetic acid hydrochloride salt], which IC50 is on record?
A: 145 nM

Q: Which IC50 does the source give for `CCCC[C@]1(CC)CS(=O)(=O)c2cc(CCC(=O)N(CC(=O)O)CC(=O)O)c(OC)cc2[C@@H](c2ccccc2)N1` [Example 18, 2,2′-({3-[(3R,5R)-3-butyl-3-ethyl-7-(methyloxy)-1,1-dioxido-5-phenyl-2,3,4,5-tetrahydro-1,4-benzothiazepin-8-yl]propanoyl}imino)diacetic acid] here?
A: 728 nM

Q: `CCCC[C@]1(CC)CS(=O)(=O)c2cc(CNC(=O)CNCCP(=O)(O)O)c(OC)cc2[C@@H](c2ccccc2)N1` [Example 40, (2-{[2-({[(3R,5R)-3-butyl-3-ethyl-7-(methyloxy)-1,1-dioxido-5-phenyl-2,3,4,5-tetrahydro-1,4-benzothiazepin-8-yl]methyl}amino)-2-oxoethyl]amino}ethyl)phosphonic acid trifluoroacetate salt] was tested. Which IC50 did it give?
A: 4670 nM

Q: For `CCCC[C@]1(CC)CS(=O)(=O)c2cc(CCCNCCS(=O)(=O)O)c(OC)cc2[C@@H](c2ccccc2)N1` [Example 22, 2-({3-[(3R,5R)-3-butyl-3-ethyl-7-(methyloxy)-1,1-dioxido-5-phenyl-2,3,4,5-tetrahydro-1,4-benzothiazepin-8-yl]propyl}amino)ethanesulfonic acid], which IC50 is on record?
A: 2440 nM

Q: How did the IC50 turn out when `CCCC[C@]1(CC)CS(=O)(=O)c2cc(/C=C/C(=O)O)c(OC)cc2[C@@H](c2ccccc2)N1` [Example 9, (2E)-3-[(3R,5R)-3-butyl-3-ethyl-7-(methyloxy)-1,1-dioxido-5-phenyl-2,3,4,5-tetrahydro-1,4-benzothiazepin-8-yl]-2-propenoic acid ammonium salt] was run?
A: 3 nM

Q: `CCCC[C@]1(CC)CS(=O)(=O)c2cc(C(=O)NCCS(=O)(=O)O)c(OC)cc2[C@@H](c2ccccc2)N1` [Example 3, 2-({[(3R,5R)-3-butyl-3-ethyl-7-(methyloxy)-1,1-dioxido-5-phenyl-2,3,4,5-tetrahydro-1,4-benzothiazepin-8-yl]carbonyl}amino)ethanesulfonic acid trifluoroacetate] was tested. Which IC50 did it give?
A: 2 nM

Q: `CCCC[C@]1(CC)CS(=O)(=O)c2cc(CN(CP(=O)(O)O)CP(=O)(O)O)c(OC)cc2[C@@H](c2ccccc2)N1` [Example 60, [({[(3R,5R)-3-butyl-3-ethyl-7-(methyloxy)-1,1-dioxido-5-phenyl-2,3,4,5-tetrahydro-1,4-benzothiazepin-8-yl]methyl}imino)dimethanediyl]bis(phosphonic acid) tetraammonium salt] was tested. Which IC50 did it give?
A: 3330 nM

Q: How did the IC50 turn out when `CCCC[C@]1(CC)CS(=O)(=O)c2cc(CCCP(=O)(O)O)c(OC)cc2[C@@H](c2ccccc2)N1` [Example 21, {3-[(3R,5R)-3-butyl-3-ethyl-7-(methyloxy)-1,1-dioxido-5-phenyl-2,3,4,5-tetrahydro-1,4-benzothiazepin-8-yl]propyl}phosphonic acid trifluoroacetate salt] was run?
A: 51 nM

Q: For `CCCC[C@]1(CC)CS(=O)(=O)c2cc(C(=O)N(CC(=O)O)CC(=O)O)c(OC)cc2[C@@H](c2ccccc2)N1` [Example 4, 2,2′-({[(3R,5R)-3-butyl-3-ethyl-7-(methyloxy)-1,1-dioxido-5-phenyl-2,3,4,5-tetrahydro-1,4-benzothiazepin-8-yl]carbonyl}imino)diacetic acid hydrochloride], which IC50 is on record?
A: 2540 nM

Q: Which IC50 does the source give for `CCCC[C@]1(CC)CS(=O)(=O)c2cc(CCC(=O)NCCS(=O)(=O)O)c(OC)cc2[C@@H](c2ccccc2)N1` [Example 15, 2-({3-[(3R,5R)-3-butyl-3-ethyl-7-(methyloxy)-1,1-dioxido-5-phenyl-2,3,4,5-tetrahydro-1,4-benzothiazepin-8-yl]propanoyl}amino)ethanesulfonic acid] here?
A: 504 nM
